For this assay, the target named is T1, Androgen Receptor (Homo sapiens, UniProt P10275).
T1 construct: endogenous in cells; host or cells: VCaP cells
T1 sequence (P10275 1-920): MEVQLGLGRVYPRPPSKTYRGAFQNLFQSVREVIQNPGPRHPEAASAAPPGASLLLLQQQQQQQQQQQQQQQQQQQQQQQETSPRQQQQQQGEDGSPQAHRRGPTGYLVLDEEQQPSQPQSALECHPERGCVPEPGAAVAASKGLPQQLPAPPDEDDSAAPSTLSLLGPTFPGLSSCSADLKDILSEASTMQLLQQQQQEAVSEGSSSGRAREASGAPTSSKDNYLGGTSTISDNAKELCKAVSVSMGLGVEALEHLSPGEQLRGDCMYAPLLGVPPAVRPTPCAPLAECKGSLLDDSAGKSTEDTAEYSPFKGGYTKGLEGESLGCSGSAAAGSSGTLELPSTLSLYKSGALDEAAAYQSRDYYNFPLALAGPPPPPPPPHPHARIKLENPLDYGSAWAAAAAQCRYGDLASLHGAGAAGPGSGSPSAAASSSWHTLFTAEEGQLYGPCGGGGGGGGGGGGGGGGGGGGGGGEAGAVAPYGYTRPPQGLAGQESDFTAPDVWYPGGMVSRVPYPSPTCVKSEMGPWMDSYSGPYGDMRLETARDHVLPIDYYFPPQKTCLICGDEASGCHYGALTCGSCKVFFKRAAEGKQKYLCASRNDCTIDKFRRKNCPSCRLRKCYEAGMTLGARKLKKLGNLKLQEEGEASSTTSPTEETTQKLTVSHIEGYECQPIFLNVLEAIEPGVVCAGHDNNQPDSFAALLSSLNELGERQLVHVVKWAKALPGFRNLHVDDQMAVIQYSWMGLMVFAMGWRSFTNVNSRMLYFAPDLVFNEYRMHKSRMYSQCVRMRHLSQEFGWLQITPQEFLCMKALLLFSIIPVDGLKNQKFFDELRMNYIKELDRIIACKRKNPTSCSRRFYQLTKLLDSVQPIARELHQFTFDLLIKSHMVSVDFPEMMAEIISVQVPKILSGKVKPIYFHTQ
Description: Androgen Receptor ELISA assay (PathScan AR ELISA) in VCaP cells: AR degradation, Dmax and DC50. It counts as cell-based. The method in brief:
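VCaP cells, 30,000/well, grown ≥3 days in phenol red-free RPMI with 5% charcoal-stripped FBS; compound added in 0.1% DMSO with 0.1 nM R1881, 7 half-log doses, 24 h. Lysate AR quantified by PathScan sandwich ELISA, HRP/TMB read at 450 nm, giving DC50 and Dmax.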

Where [1] appears, read: VCaP cells; Table 36; read-out: VCaP DC50.
Where [2] appears, read: VCaP, VCaP cells; Table 36; read-out: VCaP Dmax (%).

Read-outs that look alike come from different tables or passages of the source.

The DC50 is the midpoint of the concentration-degradation curve. The term Dmax denotes the greatest extent of degradation seen. For `Cc1ncsc1-c1ccc(CNC(=O)[C@@H]2C[C@@H](O)CN2C(=O)[C@H](C(C)C)N2Cc3ccccc3C2=O)c(OCCN2CCN(c3ccc(C(=O)N[C@H]4C(C)(C)[C@H](Oc5ccc(C#N)c(C(F)(F)F)c5)C4(C)C)cn3)CC2)c1` [Example 733, N-((1r,3r)-3-(4-cyano-3-(trifluoromethyl)phenoxy)-2,2,4,4-tetramethylcyclobutyl)-6-(4-(2-(2-(((2S,4R)-4-hydroxy-1-((S)-3-methyl-2-(1-oxoisoindolin-2-yl)butanoyl)pyrrolidine-2-carboxamido)methyl)-5-(4-methylthiazol-5-yl)phenoxy)ethyl)piper-azin-1-yl)nicotinamide], under setting [1], the DC50 is less than 50 nM. Further, the Dmax under setting [2] is more than 71%.
Taken in the same sequence, the figures for `CC(=O)N[C@H](C(=O)N1C[C@H](O)C[C@H]1C(=O)N[C@@H](C)c1ccc(-c2scnc2C)cc1)[C@@H](C)OCCCN(C)CCc1ccc(C(=O)N[C@H]2C(C)(C)[C@H](Oc3ccc(C#N)c(Cl)c3)C2(C)C)cc1` [Example 734, (2S,4R)-1-(N-acetyl-O-(3-((4-(((1r,3r)-3-(3-chloro-4-cyanophenoxy)-2,2,4,4-tetramethylcyclobutyl)carbamoyl)phenethyl)(meth-yl)amino)propyl)-L-threonyl)-4-hydroxy-N-((S)-1-(4-(4-methylthiazol-5-yl)phenyl)ethyl)pyrrolidine-2-carboxamide] were more than 501 nM and less than 25%.
As to `Cc1cc(C(C(=O)N2C[C@H](O)C[C@H]2C(=O)NCc2ccc(Cl)cc2OCCOCCOCCOc2ccc(N3C(=S)N(c4ccc(C#N)c(C(F)(F)F)c4)C(=O)C3(C)C)cc2)C(C)C)on1` (stereo partly drawn) [Example 735, (2S,4R)-N-(4-chloro-2-(2-(2-(2-(4-(3-(4-cyano-3-(trifluoromethyl)phenyl)-5,5-dimethyl-4-oxo-2-thioxoimidazolidin-1-yl)phenoxy)ethoxy)eth-oxy)ethoxy)benzyl)-4-hydroxy-1-(3-methyl-2-(3-methylisoxazol-5-yl)butanoyl)pyrrolidine-2-carboxamide], under “VCaP, read-out: VCaP Dmax (%)”, the Dmax was less than 25%. The 50% degradation concentration (DC50) (read-out: VCaP DC50; VCaP cells; Table 36) was more than 501 nM.
Turning to `CC(C)(C)[C@H](NC(=O)COCCN1CCN(c2ccc(C(=O)N[C@H]3C(C)(C)[C@H](Oc4ccc(C#N)c(Cl)c4)C3(C)C)cn2)CC1)C(=O)N1C[C@H](O)C[C@H]1C(=O)NCc1ccc(C#N)cc1` [Example 736, N-((1r,3r)-3-(3-chloro-4-cyanophenoxy)-2,2,4,4-tetramethylcyclobutyl)-6-(4-(2-(2-(((S)-1-((2S,4R)-2-((4-cyanobenzyl)carbamoyl)-4-hydroxypyrrolidin-1-yl)-3,3-dimethyl-1-oxobutan-2-yl)amino)-2-oxoethoxy)ethyl)pipera-zin-1-yl)nicotinamide], the DC50 under setting [1] was less than 50 nM. For the same molecule, the maximal degradation (Dmax) under setting [2] lay within 51 to 70%.
In the case of `CC(C)(C)[C@H](NC(=O)COCCN1CCN(c2ccc(C(=O)N[C@H]3C(C)(C)[C@H](Oc4ccc(C#N)c(Cl)c4)C3(C)C)cn2)CC1)C(=O)N1C[C@H](O)C[C@H]1C(=O)NCc1ccc(Cl)cc1` [Example 737, N-((1r,3r)-3-(3-chloro-4-cyanophenoxy)-2,2,4,4-tetramethylcyclobutyl)-6-(4-(2-(2-(((S)-1-((2S,4R)-2-((4-chlorobenzyl)carbmaoyl)-4-hydroxypyrrolidin-1-yl)-3,3-dimethyl-1-oxobutan-2-yl)amino)-2-oxoethoxy)ethyl)pipera-zin-1-yl)nicotinamdie], the DC50 under setting [1] is more than 501 nM. The greatest degradation seen (Dmax) under setting [2] lay within 26 to 50%.
Taken in the same sequence, the figures for `CC(C)C[C@@H](C(=O)N[C@@H](C)C(=O)N1C[C@H](O)C[C@H]1C(=O)N[C@@H](C)c1ccc(Cl)cc1)N1CCN(CCCc2ccc(C(=O)N[C@H]3C(C)(C)[C@H](Oc4ccc(C#N)c(Cl)c4)C3(C)C)cc2)CC1` [Example 738, (2S,4R)-1-(((S)-2-(4-(3-(4-(((1r,3r)-3-(3-chloro-4-cyanophenoxy)-2,2,4,4-tetramethylcyclobutyl)carbamoyl)phenyl)propyl)piperazin-1-yl)-4-methylpentanoyl)-L-alanyl)-N-((S)-1-(4-chlorophenyl)ethyl)-4-hydroxypyrrolidine-2-carboxamide] were more than 501 nM and less than 25%.

For the origin of these results see patent publication US11427548B2 (Arvinas Operations, Inc., priority 2015, dated 2022).
